# Patent US20240000872A1, “NOVEL BACTERIOPHAGE THAT LYSES ACINETOBACTER GENUS BACTERIA HAVING RESISTANCE TO ANTIBIOTICS” (priority 2020, published 2024)
# System: Acinetobacter baumannii strains
# Test: Antibiotic susceptibility test (CLSI disk diffusion test method, read per CLSI 2016)
# Assay type: cell-based
# Experimental: (§1) Strain identification was performed using a kit such as AT 32 GN system (bioMérieux, Marcy l'Etoile, France). […] In Table 2 below, S, I, and R are the results obtained by evaluating susceptibility to the antibacterial agents, in which ‘S’ means susceptible, ‘I’ means intermediate, and ‘R’ means resistant.
# as §1, with “as ATB” for “as AT”, “system (bioMédrieux,” for “system (bioMérieux,”, “Table 6” for “Table 2”
# as §1, with “as ATB” for “as AT”, “Table 10” for “Table 2”, “susceptible, T” for “susceptible, ‘I’”
smiles,measurement,setting,value
"CN(C)c1ccc(O)c2c1C[C@H]1C[C@H]3[C@H](N(C)C)C(O)=C(C(N)=O)C(=O)[C@@]3(O)C(O)=C1C2=O [Minocycline, minocycline]",antibiotic susceptibility class,host strain YMC14/01/C29,S
same,antibiotic susceptibility class,host strain YMC14/01/IP122,S
same,antibiotic susceptibility class,host strain YMC14/01/L8,S
same,antibiotic susceptibility class,host strain YMC14/01/P31,S
same,antibiotic susceptibility class,host strain YMC14/01/P117,S
same,antibiotic susceptibility class,host strain YMC14/01/P224,S
same,antibiotic susceptibility class,host strain YMC14/01/P727,S
same,antibiotic susceptibility class,host strain YMC14/01/P728,S
same,antibiotic susceptibility class,host strain YMC14/01/R130,S
same,antibiotic susceptibility class,host strain YMC14/01/R160,I
same,antibiotic susceptibility class,host strain YMC14/01/R198,I
same,antibiotic susceptibility class,host strain YMC14/01/R257,I
same,antibiotic susceptibility class,host strain YMC14/01/R270,S
same,antibiotic susceptibility class,host strain YMC14/01/R324,S
same,antibiotic susceptibility class,host strain YMC14/01/R443,I
same,antibiotic susceptibility class,host strain YMC14/01/R451,R
same,antibiotic susceptibility class,host strain YMC14/01/R560,R
same,antibiotic susceptibility class,host strain YMC14/01/R617,R
same,antibiotic susceptibility class,host strain YMC14/01/R671,I
same,antibiotic susceptibility class,host strain YMC14/01/R732,S
same,antibiotic susceptibility class,host strain YMC14/01/R767,S
same,antibiotic susceptibility class,host strain YMC14/01/R904,I
same,antibiotic susceptibility class,host strain YMC14/01/R905,I
same,antibiotic susceptibility class,host strain YMC14/01/R921,S
same,antibiotic susceptibility class,host strain YMC14/01/R941,S
same,antibiotic susceptibility class,host strain YMC14/01/R958,S
same,antibiotic susceptibility class,host strain YMC14/01/R1006,S
same,antibiotic susceptibility class,host strain YMC14/01/R1199,S
same,antibiotic susceptibility class,host strain YMC14/01/R1659,S
same,antibiotic susceptibility class,host strain YMC14/01/R1722,S
same,antibiotic susceptibility class,host strain YMC14/01/R1752,S
same,antibiotic susceptibility class,host strain YMC14/01/R2429,S
same,antibiotic susceptibility class,host strain YMC14/01/R2572,S
same,antibiotic susceptibility class,host strain YMC14/01/R2855,S
same,antibiotic susceptibility class,host strain YMC14/01/R2945,S
same,antibiotic susceptibility class,host strain YMC14/01/R3007,S
same,antibiotic susceptibility class,host strain YMC14/01/R3129,S
same,antibiotic susceptibility class,host strain YMC14/01/R3317,S
same,antibiotic susceptibility class,host strain YMC14/01/R3474,S
same,antibiotic susceptibility class,host strain YMC14/01/R3574,S
same,antibiotic susceptibility class,host strain YMC14/01/U313,S
same,antibiotic susceptibility class,host strain YMC14/01/U318,I
same,antibiotic susceptibility class,host strain YMC14/02/L18,S
same,antibiotic susceptibility class,host strain YMC14/02/P47,S
same,antibiotic susceptibility class,host strain YMC14/02/R1860,S
same,antibiotic susceptibility class,host strain YMC14/02/R2417,S
same,antibiotic susceptibility class,host strain YMC14/02/R2599,S
same,antibiotic susceptibility class,host strain YMC14/02/R2668,S
same,antibiotic susceptibility class,host strain YMC14/02/R2758,S
same,antibiotic susceptibility class,host strain YMC14/02/R2781,S
same,antibiotic susceptibility class,host strain YMC14/02/R3106,S
same,antibiotic susceptibility class,host strain YMC14/02/R3419,S
same,antibiotic susceptibility class,host strain YMC14/02/U1607,S
same,antibiotic susceptibility class,host strain YMC14/03/L9,S
same,antibiotic susceptibility class,host strain YMC14/03/P471,S
same,antibiotic susceptibility class,host strain YMC14/03/R122,S
same,antibiotic susceptibility class,host strain YMC14/03/R217,S
same,antibiotic susceptibility class,host strain YMC14/03/R380,S
same,antibiotic susceptibility class,host strain YMC14/03/R618,S
same,antibiotic susceptibility class,host strain YMC14/03/R2144,S
same,antibiotic susceptibility class,host strain YMC14/03/U4616,S
same,antibiotic susceptibility class,host strain YMC14/04/R1078,S
same,antibiotic susceptibility class,host strain YMC14/04/R1080,S
same,antibiotic susceptibility S/I/R,host strain YMC14/06/R2359,S
same,susceptibility category (S/I/R),host strain YMC14/06/R2359,S
same,antibiotic susceptibility S/I/R,host strain YMC14/08/R1169,S
same,susceptibility category (S/I/R),host strain YMC14/08/R1169,S
same,antibiotic susceptibility S/I/R,host strain YMC14/08/T90,S
same,susceptibility category (S/I/R),host strain YMC14/08/T90,S
same,antibiotic susceptibility S/I/R,host strain YMC15/02/R436,R
same,susceptibility category (S/I/R),host strain YMC15/02/R436,R
same,antibiotic susceptibility S/I/R,host strain YMC15/02/T28,S
same,susceptibility category (S/I/R),host strain YMC15/02/T28,S
same,antibiotic susceptibility S/I/R,host strain YMC15/03/R1604,S
same,susceptibility category (S/I/R),host strain YMC15/03/R1604,S
same,antibiotic susceptibility S/I/R,host strain YMC15/09/R1869,S
same,susceptibility category (S/I/R),host strain YMC15/09/R1869,S
same,antibiotic susceptibility S/I/R,host strain YMC16/01/P11,S
same,susceptibility category (S/I/R),host strain YMC16/01/P11,S
same,antibiotic susceptibility S/I/R,host strain YMC16/01/R123,S
same,susceptibility category (S/I/R),host strain YMC16/01/R123,S
same,antibiotic susceptibility S/I/R,host strain YMC16/01/R198,S
same,susceptibility category (S/I/R),host strain YMC16/01/R198,S
same,antibiotic susceptibility S/I/R,host strain YMC16/01/R353,S
same,susceptibility category (S/I/R),host strain YMC16/01/R353,S
same,antibiotic susceptibility S/I/R,host strain YMC16/01/R380,S
same,susceptibility category (S/I/R),host strain YMC16/01/R380,S
same,antibiotic susceptibility S/I/R,host strain YMC16/01/R397,S
same,susceptibility category (S/I/R),host strain YMC16/01/R397,S
same,antibiotic susceptibility S/I/R,host strain YMC16/01/R405,S
same,susceptibility category (S/I/R),host strain YMC16/01/R405,S
same,antibiotic susceptibility S/I/R,host strain YMC16/03/R4461,S
same,susceptibility category (S/I/R),host strain YMC16/03/R4461,S
same,antibiotic susceptibility S/I/R,host strain YMC16/05/R2210,S
same,susceptibility category (S/I/R),host strain YMC16/05/R2210,S
same,antibiotic susceptibility S/I/R,host strain YMC16/07/R2512,S
same,susceptibility category (S/I/R),host strain YMC16/07/R2512,S
same,antibiotic susceptibility S/I/R,host strain YMC16/09/R2471,S
same,susceptibility category (S/I/R),host strain YMC16/09/R2471,S
same,antibiotic susceptibility S/I/R,host strain YMC16/10/R2537,S
same,susceptibility category (S/I/R),host strain YMC16/10/R2537,S
same,antibiotic susceptibility S/I/R,host strain YMC16/12/B11422,S
same,susceptibility category (S/I/R),host strain YMC16/12/B11422,S
same,antibiotic susceptibility S/I/R,host strain YMC16/12/B11449,S
same,susceptibility category (S/I/R),host strain YMC16/12/B11449,S
same,antibiotic susceptibility S/I/R,host strain YMC16/12/B13325,S
same,susceptibility category (S/I/R),host strain YMC16/12/B13325,S
same,antibiotic susceptibility S/I/R,host strain YMC16/12/P503,R
same,susceptibility category (S/I/R),host strain YMC16/12/P503,R
same,antibiotic susceptibility S/I/R,host strain YMC16/12/R4637,R
same,susceptibility category (S/I/R),host strain YMC16/12/R4637,R
same,antibiotic susceptibility S/I/R,host strain YMC17/01/B8053,S
same,susceptibility category (S/I/R),host strain YMC17/01/B8053,S
same,antibiotic susceptibility S/I/R,host strain YMC17/01/B10087,S
same,susceptibility category (S/I/R),host strain YMC17/01/B10087,S
same,antibiotic susceptibility S/I/R,host strain YMC17/01/B12075,S
same,susceptibility category (S/I/R),host strain YMC17/01/B12075,S
same,antibiotic susceptibility S/I/R,host strain YMC17/01/B13454,S
same,susceptibility category (S/I/R),host strain YMC17/01/B13454,S
same,antibiotic susceptibility S/I/R,host strain YMC17/01/P518,S
same,susceptibility category (S/I/R),host strain YMC17/01/P518,S
same,antibiotic susceptibility S/I/R,host strain YMC17/01/R2812,R
same,susceptibility category (S/I/R),host strain YMC17/01/R2812,R
same,susceptibility category (S/I/R),host strain YMC17/02/B14,I
same,susceptibility category (S/I/R),host strain YMC17/02/B87,I
same,antibiotic susceptibility S/I/R,host strain YMC17/02/B721,S
same,susceptibility category (S/I/R),host strain YMC17/02/B721,S
same,antibiotic susceptibility S/I/R,host strain YMC17/02/B4039,S
same,susceptibility category (S/I/R),host strain YMC17/02/B4039,S
same,antibiotic susceptibility S/I/R,host strain YMC17/02/B4520,S
same,susceptibility category (S/I/R),host strain YMC17/02/B4520,S
same,antibiotic susceptibility S/I/R,host strain YMC17/02/B4864,S
same,susceptibility category (S/I/R),host strain YMC17/02/B4864,S
same,antibiotic susceptibility S/I/R,host strain YMC17/02/B8414,S
same,susceptibility category (S/I/R),host strain YMC17/02/B8414,S
same,antibiotic susceptibility S/I/R,host strain YMC17/02/P523,S
same,susceptibility category (S/I/R),host strain YMC17/02/P523,S
same,antibiotic susceptibility S/I/R,host strain YMC17/02/R541,R
same,susceptibility category (S/I/R),host strain YMC17/02/R541,R
same,antibiotic susceptibility S/I/R,host strain YMC17/02/R2392,S
same,susceptibility category (S/I/R),host strain YMC17/02/R2392,S
same,antibiotic susceptibility S/I/R,host strain YMC17/03/B4730,S
same,susceptibility category (S/I/R),host strain YMC17/03/B4730,S
same,susceptibility category (S/I/R),host strain YMC17/03/B5000,I
same,antibiotic susceptibility S/I/R,host strain YMC17/03/P971,S
same,susceptibility category (S/I/R),host strain YMC17/03/P971,S
same,antibiotic susceptibility S/I/R,host strain YMC17/03/R348,S
same,susceptibility category (S/I/R),host strain YMC17/03/R348,S
same,antibiotic susceptibility S/I/R,host strain YMC17/03/R585,R
same,susceptibility category (S/I/R),host strain YMC17/03/R585,R
same,antibiotic susceptibility S/I/R,host strain YMC17/03/R1888,S
same,susceptibility category (S/I/R),host strain YMC17/03/R1888,S
same,antibiotic susceptibility S/I/R,host strain YMC17/03/R3279,S
same,susceptibility category (S/I/R),host strain YMC17/03/R3279,S
same,antibiotic susceptibility S/I/R,host strain YMC17/03/R4077,S
same,susceptibility category (S/I/R),host strain YMC17/03/R4077,S
same,antibiotic susceptibility S/I/R,host strain YMC17/03/R4607,R
same,susceptibility category (S/I/R),host strain YMC17/03/R4607,R
same,antibiotic susceptibility S/I/R,host strain YMC17/04/R488,S
same,susceptibility category (S/I/R),host strain YMC17/04/R488,S
same,antibiotic susceptibility S/I/R,host strain YMC17/04/R640,S
same,susceptibility category (S/I/R),host strain YMC17/04/R640,S
same,antibiotic susceptibility S/I/R,host strain YMC/17/05/R1095,S
same,susceptibility category (S/I/R),host strain YMC/17/05/R1095,S
